Data reported in article PMC10897476, “Pyridylpiperazine efflux pump inhibitor boosts in vivo antibiotic efficacy against K. pneumoniae” (EMBO Molecular Medicine, 2023).
Where “and” joins values, the source holds several entries; their conditions need not be identical. Equal entries are not always repeated.

How the values were obtained:
Format in all cases: cell-based, Klebsiella pneumoniae
[1] = tested on: K. pneumoniae RamR^mut (K124*stop); assay: Checkerboard assay levofloxacin x EPI, RamR mutant; conditions: for checkerboard growth readout: ATCC43816 ramRmut, levofloxacin 0 ng/mL
Method: (§1) MIC experiments were carried out according to the CLSI guidelines (CLSI [2023]). Overnight cultures were diluted to an OD600 = 0.001 in CAMHB followed by addition of efflux pump inhibitors (EPIs) at a final concentration of 100 µM. […] Plates were incubated at 37 °C for up to 20 h. Bacterial viability was evaluated using the resazurin microtitre assay (REMA) and measured by fluorescence using a Tecan Spaert multimode plate reader (Ex: 530 nm Em: 590 nm). MICs were defined as the concentration that prevented 90% of resazurin turnover compared to the non-treated bacteria.
(§2) Bacterial suspensions, incubation and plate readouts were carried out as described above.

[2] = tested on: K. pneumoniae RamR^mut (K124*stop); assay: MIC of antibiotics with and without EPI (REMA), RamR mutant; conditions: K. pneumoniae-RamR^mut, Table 2
Method in brief: (§3)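 K. pneumoniae ATCC 43816 carrying single chromosomal acrB or ramR mutations introduced by allelic exchange, diluted to OD600 = 0.001 in CAMHB with EPI at final 100 µM. Incubated 37 °C up to 20 h; viability by resazurin fluorescence (Ex 530/Em 590 nm).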

[3] = tested on: K. pneumoniae ATCC 43816 (WT); assay: Checkerboard assay levofloxacin x EPI, WT strain; conditions: for checkerboard growth readout: ATCC43816 WT, levofloxacin 0 ng/mL; for percentage resazurin turnover: individual replicates, listed as BDM91288; for Median REMA values (percentage resazurin turnover): median n=3
Method: as §1, §2

K. pneumoniae AcrB^V448E [4] = assay: MIC of antibiotics with and without EPI (REMA), AcrB V448E mutant; conditions: K. pneumoniae-AcrB^V448E, Table 2
Method in brief: as §3

[5] = tested on: K. pneumoniae AcrB^V448E RamR^mut; assay: Checkerboard assay levofloxacin x EPI, double mutant; set-up: checkerboard growth readout: unit not given here; conditions: for checkerboard growth readout: ATCC43816 AcrBV448E ramRmut, levofloxacin 0 ng/mL
Method: as §1, §2

K. pneumoniae AcrB^V448E [6] = assay: Checkerboard assay levofloxacin x EPI, AcrB V448E mutant; conditions: for checkerboard growth readout: ATCC43816 AcrBV448E, levofloxacin 0 ng/mL; for Median REMA values / percentage resazurin turnover: Lev 0.00 ng/mL
Method: as §1, §2

SMILES: Clc1cc2cc(N3CCNCC3)ccc2nc1N1CCNCC1 [compound 5]
- checkerboard growth readout ([1]; EPI 2.3 µM): 90
- checkerboard growth readout ([1]; EPI 4.7 µM): 91
- checkerboard growth readout ([1]; EPI 9.4 µM): 93
- checkerboard growth readout ([1]; EPI 19 µM): 96
- checkerboard growth readout ([1]; EPI 38 µM): 124
- checkerboard growth readout ([1]; EPI 75 µM): 151
- checkerboard growth readout ([1]; EPI 150 µM): 151
- checkerboard growth readout ([1]; EPI 300 µM): 103
- reversion of RamR-mediated levofloxacin resistance, in words ([1]; K. pneumoniae RamR^mut): completely reverted
- EPI mediated antibiotic boosting, in words [2]: maintained
- checkerboard growth readout ([3]; EPI 2.3 µM): 105
- checkerboard growth readout ([3]; EPI 4.7 µM): 106
- checkerboard growth readout ([3]; EPI 9.4 µM): 97
- checkerboard growth readout ([3]; EPI 19 µM): 85
- checkerboard growth readout ([3]; EPI 38 µM): 109
- checkerboard growth readout ([3]; EPI 75 µM): 121
- checkerboard growth readout ([3]; EPI 150 µM): 118
- checkerboard growth readout ([3]; EPI 300 µM): 87
- maximal boosting of levofloxacin activity (decrease of MIC) ([3]; K. pneumoniae WT (ATCC 43816), at 38 µM BDM91288): 4 fold
- concentration needed for efficacy in vitro (boosting levofloxacin activity) ([3]; K. pneumoniae WT, Fig. 2): 9 to 38 µM
- percentage resazurin turnover ([3]; Lev 0.00 ng/mL + EPI 2.34 uM): 110% and 85% and 105%
- Median REMA values (percentage resazurin turnover) ([3]; Lev 0.00 ng/mL + EPI 2.34 uM): 105%
- percentage resazurin turnover ([3]; Lev 0.00 ng/mL + EPI 4.69 uM): 106% and 98% and 117%
- Median REMA values (percentage resazurin turnover) ([3]; Lev 0.00 ng/mL + EPI 4.69 uM): 106%
- percentage resazurin turnover ([3]; Lev 0.00 ng/mL + EPI 9.38 uM): 97% and 89% and 110%
- Median REMA values (percentage resazurin turnover) ([3]; Lev 0.00 ng/mL + EPI 9.38 uM): 97%
- percentage resazurin turnover ([3]; Lev 0.00 ng/mL + EPI 18.75 uM): 66% and 85% and 116%
- Median REMA values (percentage resazurin turnover) ([3]; Lev 0.00 ng/mL + EPI 18.75 uM): 85%
- percentage resazurin turnover ([3]; Lev 0.00 ng/mL + EPI 37.50 uM): 112% and 98% and 109%
- Median REMA values (percentage resazurin turnover) ([3]; Lev 0.00 ng/mL + EPI 37.50 uM): 109%
- percentage resazurin turnover ([3]; Lev 0.00 ng/mL + EPI 75.00 uM): 89% and 138% and 121%
- Median REMA values (percentage resazurin turnover) ([3]; Lev 0.00 ng/mL + EPI 75.00 uM): 121%
- percentage resazurin turnover ([3]; Lev 0.00 ng/mL + EPI 150.00 uM): 94% and 132% and 118%
- Median REMA values (percentage resazurin turnover) ([3]; Lev 0.00 ng/mL + EPI 150.00 uM): 118%
- percentage resazurin turnover ([3]; Lev 0.00 ng/mL + EPI 300 uM): 107% and 80% and 87%
- Median REMA values (percentage resazurin turnover) ([3]; Lev 0.00 ng/mL + EPI 300 uM): 87%
- concentration at which boosting of levofloxacin activity starts ([3]; parental K. pneumoniae strain, checkerboard): around 9 µM
- susceptibility of the strain to antibiotic boosting by the EPI, in words (K. pneumoniae AcrB^V448E [4]): resistant
- checkerboard growth readout ([5]; EPI 2.3 µM): 87
- checkerboard growth readout ([5]; EPI 4.7 µM): 75
- checkerboard growth readout ([5]; EPI 9.4 µM): 86
- checkerboard growth readout ([5]; EPI 19 µM): 93
- checkerboard growth readout ([5]; EPI 38 µM): 98
- checkerboard growth readout ([5]; EPI 75 µM): 128
- checkerboard growth readout ([5]; EPI 150 µM): 153
- checkerboard growth readout ([5]; EPI 300 µM): 136
- modulation of levofloxacin MIC, in words ([5]; K. pneumoniae AcrB^V448E RamR^mut): No modulation
- checkerboard growth readout (K. pneumoniae AcrB^V448E [6]; EPI 2.3 µM): 105
- checkerboard growth readout (K. pneumoniae AcrB^V448E [6]; EPI 4.7 µM): 99
- checkerboard growth readout (K. pneumoniae AcrB^V448E [6]; EPI 9.4 µM): 105
- checkerboard growth readout (K. pneumoniae AcrB^V448E [6]; EPI 19 µM): 100
- checkerboard growth readout (K. pneumoniae AcrB^V448E [6]; EPI 38 µM): 109
- checkerboard growth readout (K. pneumoniae AcrB^V448E [6]; EPI 75 µM): 118
- checkerboard growth readout (K. pneumoniae AcrB^V448E [6]; EPI 150 µM): 109
- checkerboard growth readout (K. pneumoniae AcrB^V448E [6]; EPI 300 µM): 93
- boosting of levofloxacin activity, in words (K. pneumoniae AcrB^V448E [6]; K. pneumoniae AcrB^V448E): boosting was no longer observed
- Median REMA values (K. pneumoniae AcrB^V448E [6]; BDM91288 2.34 uM): 105%
- percentage resazurin turnover (K. pneumoniae AcrB^V448E [6]; BDM91288 2.34 uM): 105% and 87% and 109%
- Median REMA values (K. pneumoniae AcrB^V448E [6]; BDM91288 4.69 uM): 99%
- percentage resazurin turnover (K. pneumoniae AcrB^V448E [6]; BDM91288 4.69 uM): 99% and 89% and 111%
- Median REMA values (K. pneumoniae AcrB^V448E [6]; BDM91288 9.38 uM): 105%
- percentage resazurin turnover (K. pneumoniae AcrB^V448E [6]; BDM91288 9.38 uM): 105% and 90% and 114%
- Median REMA values (K. pneumoniae AcrB^V448E [6]; BDM91288 18.75 uM): 100%
- percentage resazurin turnover (K. pneumoniae AcrB^V448E [6]; BDM91288 18.75 uM): 100% and 93% and 138%
- Median REMA values (K. pneumoniae AcrB^V448E [6]; BDM91288 37.50 uM): 109%
- percentage resazurin turnover (K. pneumoniae AcrB^V448E [6]; BDM91288 37.50 uM): 99% and 109% and 157%
- Median REMA values (K. pneumoniae AcrB^V448E [6]; BDM91288 75.00 uM): 118%
- percentage resazurin turnover (K. pneumoniae AcrB^V448E [6]; BDM91288 75.00 uM): 124% and 117% and 118%
- Median REMA values (K. pneumoniae AcrB^V448E [6]; BDM91288 150.00 uM): 109%
- percentage resazurin turnover (K. pneumoniae AcrB^V448E [6]; BDM91288 150.00 uM): 109% and 152% and 108%
- Median REMA values (K. pneumoniae AcrB^V448E [6]; BDM91288 300 uM): 93%
- percentage resazurin turnover (K. pneumoniae AcrB^V448E [6]; BDM91288 300 uM): 114% and 93% and 89%
